“Also recorded” adds a separate entry of the source.
Legend:
[1] = Mortality with indomethacin in mice; assay type: in vivo, mouse; conditions: higher dose (5 mg/kg BID)
Description: The propensity of NSAIDs to induce ulceration and bleeding often outweigh the anti-inflammatory benefits. […] NSAIDs that more selectively target Cox-2, such as roficoxib and celecoxib, are well tolerated and have been widely used as alternatives to broad spectrum NSAIDs for controlling inflammation. In addition, the selective agonism of PPAR-γ is an effective anti-inflammatory strategy, e.g., through administration of thiazolidinediones such as rosiglitazone or pioglitizone. […] Mice were started on a 16 day preventative course of oral NSAID and then challenged with a single IP injection of LPS (5 mg/kg) and then BrdU (50 mg/kg) over 6 days beginning 2 h after LPS. The mice were either perfused 28 days after LPS injection, or trained and tested in the Morris water maze.
NSAID treatment. One half of the saline- and LPS-treated mice were fed non-steroidal anti-inflammatory drug (NSAID), in low fat strawberry milk, twice per day for two weeks following LPS injection (Days 0-13). The mice were initially introduced to low fat strawberry milk (Berkeley Farms, Calif.; 200 μl per animal) in their home cages, four days before LPS was injected (Days […]) and were then placed in a PVC tube (10-cm diameter×18-cm height), twice per day (12 h apart) beginning two days before LPS was injected (Days −2 and −1) until they consumed a 100 μl volume of low fat strawberry milk. […]

adult rats = assay: Barnes maze after LPS; assay type: in vivo, rat
Description: LPS-induced inflammatory response impairs performance in the Barnes maze. It has been reported previously that irradiation and LPS-induced inflammation impair performance in hippocampus-dependent spatial tasks. The present studies confirm that LPS treatment impaired recall of a goal position learned prior to LPS treatment. The Barnes maze is a 6-foot diameter bright white platform with 8 escape boxes under holes in the rim of the platform. All escape holes are blocked except one and the rat is initially placed in the goal box for familiarization. The rat is then placed in the center of the maze and is allowed to find its way back to the goal box to escape the aversive brightly lit platform. Learning is seen as a decrease in the distance traveled to reach the goal box with consecutive trials on a given day and in repeat sessions on sequential days. One measure of recall is to determine distance traveled when the animal is tested on the same task after a time delay or after experimental treatments.
To determine if there were differences in recall following LPS treatment, animals were trained on the Barnes maze for 5 consecutive days prior to LPS treatment. LPS was given on day 0 and animals tested for recall on day 7. Low-dose intraperitoneal LPS treatment makes animals feel mildly ill and they will reduce their water and food intake for a period of one or two days. There is a temporary weight loss that is fully recovered by day 7.
Animals were weighed daily and after 7 days tested for memory retention on the Barnes maze. On days 8-11, animals were re-trained for their ability to learn the position of a new goal box in the Barnes maze. Animals were then tested on day 14 for the ability to remember the position of the second goal box. LPS caused a ˜14% increase in the distance traveled to the goal box learned prior to LPS treatment, indicating impaired spatial memory. LPS caused a significant increase (˜28%) in the distance traveled during day 8 trials used to learn the position of the new goal box (indicating impaired spatial learning) but all animals eventually learned the position of the goal box by day 11 (no difference in distance traveled between LPS and control groups).

C57BI/6 mice = assay: Locomotor chambers and Morris water maze after LPS in mice; assay type: in vivo, mouse; conditions: for effect of NSAID on LPS-induced impairment of probe trial performance: oral NSAID course, training from Day 28
Protocol: Behavioral testing. Locomotor activity was measured in 17×17 inch chambers lined with three 16-beam infrared arrays in photocell boxes (MED Associates, Inc., St. Albans, Vt.). The mice were placed into the chambers and their locomotor activity was recorded for 20 minutes 4 days after LPS was injected (on Day 4). A 50 msec scanning rate was used for measuring beams broken. Distance traveled was analyzed for estimates of locomotion based on the movement of a given distance and resting delay (movement in a given period) using Open Field Activity software (MED Associates, Inc., St. Albans, Vt.).
Hippocampus-dependent learning and memory was assessed in the standard Morris water maze task. All hippocampus-dependent training and testing was conducted in a black circular tank (170 cm diameter×43 cm height) filled water made opaque using white non-toxic Tempra paint (Rich Art Color Co. Inc, Northvale, Calif.; training and testing). A platform (13 cm diameter×28.5 cm height) was hidden 1 cm below the water surface for platform shaping and training trials. Time and distance traveled in the pool was recorded using Videotrack Automated Behavioral Analysis System (Viewpoint Life Sciences Inc., Otterburn Park, Quebec).
Platform shaping began three days before platform training (Days 25-27). In the absence of extra-maze cues, mice were released from random points in the pool (filled with clearwater) near the platform and gently guided to the platform. Shaping trials continued until the mouse remained on the platform for 15 s over 3 consecutive trials on each of the three sessions.
[…] In the presence of extra-maze cues, the mice were released from the middle of the east, south, or west quadrant, facing the pool wall, and were given 120 s to find the platform hidden beneath opaque water in the center of the north quadrant. […] Sessions of 6 training trials (inter-trial interval of approximately 30 min) were conducted daily until all the mice located the platform in an average of 15 s or less within a session. […] Pathlength and latency were analyzed as measures of learning, swim speed was analyzed as a measure of sensorimotor ability and % time spent in outer annulus was analyzed as a measure of anxiety.
Probe Trial Testing was conducted at 1 week after mice reached criterion in the platform training phase of the experiment. The room setup was identical for platform training and probe trials, with the exception that the platform was removed from the pool during probe trials. The mice were given a single trial in which they were released from the center of the pool and then after 3 minutes were removed from the location that held the platform during training trials. Percent time and distance spent in each quadrant were analyzed as measures of memory, swim speed and total distance swum were analyzed as measures of sensorimotor ability and % time and distance spent in the outer annulus were analyzed as measures of anxiety. After the last probe trial, we ran four daily sessions of reversal trials (4 trials per session) in which mice were given 120 s to locate the platform hidden beneath opaque water in the south quadrant to better interpret whether probe trial performance was indicative of memory or perseveration. […] A visible platform session (2 trials) was administered after the final reversal trial to further test sensorimotor ability. Reversal and visible platform trial performance was scored identically to platform training performance.

[2] = Sickness behavior after LPS in rats; assay type: in vivo, rat; conditions: LPS 1 mg/Kg i.p. one time
Protocol: LPS exposure. Bacterial lipopolysaccharide (LPS, Sigma, St Louis, Mo.) was administered in sterile saline by intraperitoneal injection at a dose of 1 mg/Kg one time. This caused mild sickness behavior (decreased grooming, decreased locomotor activity, increased piloerection) for approximately 2 days, resolving by the 3rd day. The dose of LPS chosen causes mild sickness behavior in rats that resolves within 1-2 days; the dose of LPS used to induce endotoxic shock is 10-fold higher than that used in the present study.

Row | Compound | mortality [1] [%] | learning and memory, drug alone by intraperitoneal injection (adult rats; indomethacin 2.5 mg/kg twice daily i.p., no LPS) | learning and memory, oral drug alone (adult rats; indomethacin 2.5 mg/kg twice daily oral, no LPS) | effect on LPS effects on memory retention and learning of second goal box (adult rats; oral indomethacin 2.5 mg/kg twice daily with LPS) | effect of NSAID on LPS-induced impairment of probe trial performance (C57BI/6 mice; LPS 5 mg/kg) | effect of NSAID on LPS-induced impairment of probe trial performance (C57BI/6 mice; LPS 5 mg/kg, listed as Indomethacin) | increase in distance traveled to the goal box learned prior to LPS treatment (adult rats; day 7 after LPS, memory retention) [%] | increase in distance traveled during day 8 trials to learn the new goal box (adult rats; day 8 after LPS, spatial learning) [%] | duration of mild sickness behavior [2] | total distance explored and duration spent exploring a novel chamber vs vehicle (C57BI/6 mice; LPS 5 mg/kg, Day 4) | learning and remembering hidden platform position vs control, acute phase recovery (C57BI/6 mice; LPS 5 mg/kg, training from Day 7) | probe trial time in platform quadrant vs control (C57BI/6 mice; training commenced 4 weeks after LPS)
1 | COc1ccc2c(c1)c(CC(=O)O)c(C)n2C(=O)c1ccc(Cl)cc1 [indomethacin] | 100 | perform more poorly in all tasks at all time points | no measurable effects | completely reverse | partially attenuated | reversed the effects of LPS on probe trial performance | – | – | – | – | – | –
2 | lipopolysaccharide [LPS] | – | – | – | – | – | – | ~14 | ~28 | approximately 2 days | significantly smaller | equally efficient | significantly smaller amount of time; also recorded: significantly less time
